Key:
[1] = tested on: human telomeric G4 DNA, dAGGG(TTAGGG)3 (DNA, G4) AGGGTTAGGGTTAGGGTTAGGG; assay: ITC; conditions: Na+ 100 mM; 298.15 K; 64 μM DNA in cell, 700 μM peptide in syringe
[2] = tested on: ds26 (DNA, duplex) CAATCGGATCGAATTCGATCCGATTG; assay: ITC; conditions: Na+ 100 mM
[3] = tested on: human telomeric G4 DNA, dAGGG(TTAGGG)3 (DNA, G4) AGGGTTAGGGTTAGGGTTAGGG; assay: EMSA; conditions: 30 μM G4; room temperature; 15-120 μM peptide
[4] = tested on: human telomeric G4 DNA, dAGGG(TTAGGG)3 (DNA, G4) AGGGTTAGGGTTAGGGTTAGGG; assay: CD titration; conditions: Na+; aqueous buffer
[5] = tested on: human telomeric G4 DNA, dAGGG(TTAGGG)3 (DNA, G4) AGGGTTAGGGTTAGGGTTAGGG; assay: intrinsic fluorescence titration; conditions: 15 μM peptide; 0 to 18.16 μM G4; room temperature
[6] = tested on: human telomeric G4 DNA, dAGGG(TTAGGG)3 (DNA, G4) AGGGTTAGGGTTAGGGTTAGGG; assay: time-resolved fluorescence (TCSPC); conditions: 100 mM Na+; 10 mM Tris, pH 7.3, 25 °C; 5.5 μM peptide; 0 to 10.5 μM G4
[7] = tested on: human telomeric G4 DNA, dAGGG(TTAGGG)3 (DNA, G4) AGGGTTAGGGTTAGGGTTAGGG; assay: thiazole orange displacement (fluorescence); conditions: 298 K; thiazole orange displaced; 0.25 μM G4, 0.50 μM TO

## N[C@@H](Cc1ccc(O)cc1)C(=O)N[C@@H](CCC(=O)N[C@@H](CCC(=O)O)C(=O)O)C(=O)N[C@@H](CCC(=O)O)C(=O)O (racemic)
[1]
  Ka: 1.1e+06 M⁻¹
[2]
  Ka: 9600 M⁻¹
[3]
  binding: yes
[4]
  binding: yes
[5]
  binding: yes
[6]
  binding: yes
[7]
  IC50: ~ 8.4 μM

Reference: article PMC9122626 (2020)
